ChEMBL document CHEMBL6127068, “Discovery of novel nitrofuran PROTAC-like compounds as dual inhibitors and degraders targeting STING” (Eur J Med Chem, 2024)
Activity calls are given as the source filed them. The rule behind the calls is not given here.

Columns and labels:
[1] = target: T1, Protein cereblon/Stimulator of interferon genes protein (Homo sapiens, UniProt Q96SW2+Q86WV6); test: PROTAC activity at CRBN/STING in human THP-1 cells assessed as inhibition of cGAMP-induced CXCL10 mRNA expression incubated for 1 hr followed by stimulation with cGAMP for 24 hrs by qRT-PCR analysis; format: cell-based; details: dose 5-20 µM, time 25.0 hrs
Target sequence in this assay (Q86WV6 whole entry, looked up): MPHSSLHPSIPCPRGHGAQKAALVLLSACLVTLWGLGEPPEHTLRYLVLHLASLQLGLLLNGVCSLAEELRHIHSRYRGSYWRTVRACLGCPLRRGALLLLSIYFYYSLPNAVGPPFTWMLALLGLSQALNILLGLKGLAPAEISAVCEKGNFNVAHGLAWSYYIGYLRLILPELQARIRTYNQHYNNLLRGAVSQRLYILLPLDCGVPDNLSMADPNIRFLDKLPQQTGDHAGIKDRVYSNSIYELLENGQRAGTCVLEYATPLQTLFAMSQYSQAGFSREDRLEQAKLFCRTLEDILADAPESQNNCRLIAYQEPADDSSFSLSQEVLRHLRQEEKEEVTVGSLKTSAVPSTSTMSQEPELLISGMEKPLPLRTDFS
Target sequence in this assay (Q96SW2 whole entry, looked up): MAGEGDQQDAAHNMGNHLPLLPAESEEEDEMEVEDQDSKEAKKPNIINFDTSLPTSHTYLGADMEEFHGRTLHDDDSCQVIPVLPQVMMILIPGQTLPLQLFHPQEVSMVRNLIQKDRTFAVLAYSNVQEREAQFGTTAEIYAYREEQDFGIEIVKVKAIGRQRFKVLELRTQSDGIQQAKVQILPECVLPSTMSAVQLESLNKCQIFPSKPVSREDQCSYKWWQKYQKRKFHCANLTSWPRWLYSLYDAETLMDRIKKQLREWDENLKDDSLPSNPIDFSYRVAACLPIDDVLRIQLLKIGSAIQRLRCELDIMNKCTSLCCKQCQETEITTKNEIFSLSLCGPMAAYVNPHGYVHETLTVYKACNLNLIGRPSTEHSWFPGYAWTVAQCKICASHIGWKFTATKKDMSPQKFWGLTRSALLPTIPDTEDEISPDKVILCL

[2] = target: T1, Protein cereblon/Stimulator of interferon genes protein; test: PROTAC activity at CRBN/STING in human THP-1 cells assessed as induction of STING degradation at 10 uM incubated for 24 hrs by western blot analysis; format: cell-based
Target sequence in this assay (Q86WV6 whole entry, looked up): as the sequence (Q86WV6 whole entry, looked up) above
Target sequence in this assay (Q96SW2 whole entry, looked up): as the sequence (Q96SW2 whole entry, looked up) above

[3] = target: T2, Protein cereblon/Stimulator of interferon genes protein (Mus musculus) (UniProt Q3TBT3+Q8C7D2); test: In vivo inhibition of STING signaling pathway in C57BL/6J mouse assessed as inhibition of cisplatin-induced ISG56 mRNA expression in kidney at 25 to 50 mg/kg by qPCR analysis; format: functional, organism-based; details: dose 25-50 mg/kg
[4] = target: T2, Protein cereblon/Stimulator of interferon genes protein (Mus musculus); test: In vivo inhibition of STING signaling pathway in C57BL/6J mouse assessed as inhibition of cisplatin-induced TNF-alpha mRNA expression in kidney at 25 to 50 mg/kg by qPCR analysis; format: functional, organism-based; details: dose 25-50 mg/kg
THP-1 = test: PROTAC activity at CRBN/Akt in human THP-1 cells assessed as induction of Akt degradation at 2.5 to 40 uM incubated for 24 hrs by western blot analysis; format: cell-based; details: dose 2.5-40 µM
[5] = target: T1, Protein cereblon/Stimulator of interferon genes protein; test: PROTAC activity at CRBN/STING in human THP-1 cells assessed as inhibition of cGAMP-induced ISG56 mRNA expression incubated for 1 hr followed by stimulation with cGAMP for 24 hrs by qRT-PCR analysis; format: cell-based; details: dose 5-20 µM, time 25.0 hrs
Target sequence in this assay (Q86WV6 whole entry, looked up): as the sequence (Q86WV6 whole entry, looked up) above
Target sequence in this assay (Q96SW2 whole entry, looked up): as the sequence (Q96SW2 whole entry, looked up) above

[6] = target: T1, Protein cereblon/Stimulator of interferon genes protein; test: PROTAC activity at CRBN/STING in human THP-1 cells assessed as inhibition of cGAMP-induced TBK1 phosphorylation incubated for 24 hrs followed by stimulation with cGAMP for 24 hrs by western blot analysis; format: cell-based; details: dose 0.3-20 µM, time 48.0 hrs
Target sequence in this assay (Q86WV6 whole entry, looked up): as the sequence (Q86WV6 whole entry, looked up) above
Target sequence in this assay (Q96SW2 whole entry, looked up): as the sequence (Q96SW2 whole entry, looked up) above

[7] = Toxicity against cisplatin-induced acute kidney injury C57BL/6J mouse model assessed as decrease in body weight at 25 to 50 mg/kg; format: organism-based; details: in vivo, dose 25-50 mg/kg
[8] = target: T3, Stimulator of interferon genes protein (Mus musculus) (UniProt Q3TBT3); test: Inhibition of STING in mouse RAW264.7 cells assessed as reduction in DMXAA-induced IFN-beta mRNA expression at 5 to 20 uM pretreated for 1 hr followed by stimulation with DMXAA for 24 hrs by qRT-CPR analysis; format: cell-based; details: dose 5-20 µM, time 25.0 hrs
T3 sequence (whole entry): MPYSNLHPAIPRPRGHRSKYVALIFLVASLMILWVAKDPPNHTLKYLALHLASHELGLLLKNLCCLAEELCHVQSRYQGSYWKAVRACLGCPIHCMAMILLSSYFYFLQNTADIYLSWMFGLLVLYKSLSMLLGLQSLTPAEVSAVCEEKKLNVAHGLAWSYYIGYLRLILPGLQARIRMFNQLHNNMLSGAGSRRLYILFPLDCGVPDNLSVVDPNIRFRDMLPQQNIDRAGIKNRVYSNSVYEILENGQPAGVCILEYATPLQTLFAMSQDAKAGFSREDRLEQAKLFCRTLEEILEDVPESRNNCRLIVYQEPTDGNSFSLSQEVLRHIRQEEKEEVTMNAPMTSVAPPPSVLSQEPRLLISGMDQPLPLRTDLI

[9] = Toxicity against cisplatin-induced acute kidney injury C57BL/6J mouse model assessed as effect on heart morphology at 25 to 50 mg/kg by Hematoxylin-Eosin staining based microscopic analysis; format: organism-based; details: in vivo, dose 25-50 mg/kg
[10] = target: T1, Protein cereblon/Stimulator of interferon genes protein; test: PROTAC activity at CRBN/STING in human THP-1 cells assessed as induction of STING degradation at 3 uM pretreated with lysosome inhibitor, bafilomycin for 1 hr followed by incubation with compound for 24 hrs by western blot analysis; format: cell-based
Target sequence in this assay (Q86WV6 whole entry, looked up): as the sequence (Q86WV6 whole entry, looked up) above
Target sequence in this assay (Q96SW2 whole entry, looked up): as the sequence (Q96SW2 whole entry, looked up) above

[11] = target: T1, Protein cereblon/Stimulator of interferon genes protein; test: PROTAC activity at CRBN/STING in human THP-1 cells assessed as induction of STING degradation incubated for 24 hrs by western blot analysis; format: cell-based
Target sequence in this assay (Q96SW2 whole entry): as the sequence (Q96SW2 whole entry, looked up) above
Target sequence in this assay (Q86WV6 whole entry): as the sequence (Q86WV6 whole entry, looked up) above

Mus musculus [12] = test: Anti-inflammatory activity against cisplatin-induced acute kidney injury C57BL/6J mouse model assessed as animal survival rate at 25 to 50 mg/kg measured at 72 hrs post-cisplatin administration (reference value: 66.7%); format: functional; details: dose 25-50 mg/kg
[13] = target: T1, Protein cereblon/Stimulator of interferon genes protein; test: PROTAC activity at CRBN/STING in human THP-1 cells assessed as inhibition of cGAMP-induced TNF-alpha mRNA expression incubated for 1 hr followed by stimulation with cGAMP for 24 hrs by qRT-PCR analysis; format: cell-based; details: dose 5-20 µM, time 25.0 hrs
Target sequence in this assay (Q86WV6 whole entry, looked up): as above
Target sequence in this assay (Q96SW2 whole entry, looked up): as the sequence (Q96SW2 whole entry, looked up) above

[14] = target: T3, Stimulator of interferon genes protein (Mus musculus); test: Inhibition of STING in mouse RAW264.7 cells assessed as reduction in SR717-induced IRF3 phosphorylation at 0.3 to 20 uM pretreated for 1 hr followed by stimulation with SR717 for 24 hrs by western blot analysis; format: cell-based; details: dose 0.3-20 µM, time 25.0 hrs
[15] = target: Protein cereblon/Signal transducer and activator of transcription 3 (Homo sapiens) (UniProt P40763+Q96SW2); test: PROTAC activity at CRBN/STAT3 in human THP-1 cells assessed as induction of STAT3 degradation at 2.5 to 40 uM incubated for 24 hrs by western blot analysis; format: cell-based; details: dose 2.5-40 µM
Mus musculus [16] = test: Anti-inflammatory activity against C57BL/6J mouse assessed as inhibition of cisplatin-induced hepatic impairment by measuring restoration of gamma-GT activity at 25 to 50 mg/kg; format: functional, organism-based; details: dose 25-50 mg/kg
[17] = target: T2, Protein cereblon/Stimulator of interferon genes protein (Mus musculus); test: In vivo inhibition of STING signaling pathway in C57BL/6J mouse assessed as inhibition of cisplatin-induced IL-6 mRNA expression in kidney at 25 to 50 mg/kg by qPCR analysis; format: functional, organism-based; details: dose 25-50 mg/kg
[18] = target: T1, Protein cereblon/Stimulator of interferon genes protein; test: PROTAC activity at CRBN/STING in human THP-1 cells assessed as induction of STING degradation at 3 uM pretreated with proteasome inhibitor, MG132 for 1 hr followed by incubation with compound for 24 hrs by western blot analysis; format: cell-based
Mus musculus [19] = test: Anti-inflammatory activity against C57BL/6J mouse assessed as inhibition of cisplatin-induced hepatic impairment by measuring restoration of AST activity at 25 to 50 mg/kg; format: functional, organism-based; details: dose 25-50 mg/kg
[20] = target: T1, Protein cereblon/Stimulator of interferon genes protein; test: PROTAC activity at CRBN/STING in human THP-1 cells assessed as induction of STING degradation at 10 uM by western blot analysis; format: cell-based; details: time 3-36 hrs, TDE = time-dependent effect
Mus musculus [21] = test: Anti-inflammatory activity against cisplatin-induced acute kidney injury C57BL/6J mouse model assessed as decrease in kidney damage at 25 to 50 mg/kg by Hematoxylin-Eosin staining based microscopic analysis; format: functional, organism-based; details: dose 25-50 mg/kg
[22] = target: T3, Stimulator of interferon genes protein (Mus musculus); test: Inhibition of STING in mouse RAW264.7 cells assessed as reduction in SR717-induced TBK1 phosphorylation at 0.3 to 20 uM pretreated for 1 hr followed by stimulation with SR717 for 24 hrs by western blot analysis; format: cell-based; details: dose 0.3-20 µM, time 25.0 hrs
[23] = target: T3, Stimulator of interferon genes protein (Mus musculus); test: Inhibition of STING in mouse RAW264.7 cells assessed as reduction in DMXAA-induced CXCL10 mRNA expression at 5 to 20 uM pretreated for 1 hr followed by stimulation with DMXAA for 24 hrs by qRT-CPR analysis; format: cell-based; details: dose 5-20 µM, time 25.0 hrs

T2 sequence (Q8C7D2 whole entry, looked up, one chain of several): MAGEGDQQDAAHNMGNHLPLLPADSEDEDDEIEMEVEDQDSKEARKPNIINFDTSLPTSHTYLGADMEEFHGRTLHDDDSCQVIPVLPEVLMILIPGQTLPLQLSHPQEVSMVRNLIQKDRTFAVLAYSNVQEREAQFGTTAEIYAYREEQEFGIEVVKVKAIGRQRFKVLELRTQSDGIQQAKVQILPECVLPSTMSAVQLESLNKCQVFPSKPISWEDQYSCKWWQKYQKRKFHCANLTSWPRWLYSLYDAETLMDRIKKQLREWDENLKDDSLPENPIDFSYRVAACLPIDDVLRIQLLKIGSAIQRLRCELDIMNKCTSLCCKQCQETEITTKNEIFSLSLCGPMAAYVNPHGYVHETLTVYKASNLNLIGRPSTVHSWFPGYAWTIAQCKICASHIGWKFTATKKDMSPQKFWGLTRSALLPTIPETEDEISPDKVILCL
Protein cereblon/Signal transducer and activator of transcription 3 (Homo sapiens), sequence (P40763 2-770 limits assumed): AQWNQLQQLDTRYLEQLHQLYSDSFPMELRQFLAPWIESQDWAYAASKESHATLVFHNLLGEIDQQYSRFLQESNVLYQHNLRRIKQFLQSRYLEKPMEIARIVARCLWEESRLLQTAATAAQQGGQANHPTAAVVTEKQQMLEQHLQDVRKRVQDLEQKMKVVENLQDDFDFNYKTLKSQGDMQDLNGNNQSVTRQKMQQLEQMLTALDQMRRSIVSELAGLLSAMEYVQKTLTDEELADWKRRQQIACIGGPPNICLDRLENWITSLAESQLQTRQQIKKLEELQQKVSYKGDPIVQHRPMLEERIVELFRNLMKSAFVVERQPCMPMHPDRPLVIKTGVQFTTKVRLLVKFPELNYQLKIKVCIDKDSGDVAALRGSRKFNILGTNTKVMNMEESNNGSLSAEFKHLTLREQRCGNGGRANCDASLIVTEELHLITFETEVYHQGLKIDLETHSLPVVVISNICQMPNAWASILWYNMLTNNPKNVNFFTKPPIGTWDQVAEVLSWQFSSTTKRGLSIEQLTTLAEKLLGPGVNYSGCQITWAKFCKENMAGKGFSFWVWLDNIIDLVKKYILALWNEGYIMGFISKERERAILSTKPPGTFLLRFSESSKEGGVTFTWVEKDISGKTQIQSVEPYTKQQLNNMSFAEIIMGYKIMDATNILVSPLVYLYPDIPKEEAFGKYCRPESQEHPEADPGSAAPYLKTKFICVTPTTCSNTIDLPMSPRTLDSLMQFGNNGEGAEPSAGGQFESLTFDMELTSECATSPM
Protein cereblon/Signal transducer and activator of transcription 3 (Homo sapiens), sequence (Q96SW2 whole entry partner): as the sequence (Q96SW2 whole entry, looked up) above

## O=C1CCC(N2C(=O)c3cccc(OCc4cn(CCCCCC(=O)OCCc5ccc(NC(=O)c6ccc([N+](=O)[O-])o6)cc5)nn4)c3C2=O)C(=O)N1 (centres undefined)
[1]
  Activity: Dose-Dependent Effect
[2]
  Activity: 82%
[3]
  inhibition: Active
[4]
  inhibition: Active
THP-1
  Activity: inactive
[5]
  Activity: Dose-Dependent Effect
[6]
  Activity: Dose-Dependent Effect
[7]
  Activity: Toxic
[8]
  inhibition: Dose-Dependent Effect
[9]
  Activity: Non-Toxic
[10]
  Activity: inactive
[11]
  DC50: 2580 nM
Mus musculus [12]
  Survival: 100%
[13]
  Activity: Dose-Dependent Effect
[14]
  inhibition: Dose-Dependent Effect
[15]
  Activity: inactive
Mus musculus [16]
  Activity: Active
[17]
  inhibition: Active
[18]
  Activity: Active
Mus musculus [19]
  Activity: Active
[20]
  Activity: Tde
Mus musculus [21]
  Activity: Active
[22]
  inhibition: Dose-Dependent Effect
[23]
  inhibition: Dose-Dependent Effect
